From the NIST ThermoML archive (doi:10.1021/je049610v)

How the values were obtained:
[1] = 101 kPa, Liquid
[2] = refractive index (Na D-line) (dimensionless); settings: 101.33 kPa, Liquid
[3] = xn = mol fraction of the nth substance listed; settings: 101 kPa, Liquid
[4] = refractive index (Na D-line) (dimensionless); xn = mol fraction of the nth substance listed; settings: 101 kPa, Liquid

CN(C)C=O [dimethylformamide]
Settings	mass density, 298.15 K [kg/m3]	mass density, 303.15 K [kg/m3]	mass density, 308.15 K [kg/m3]	refractive index, 298.15 K	refractive index, 303.15 K	refractive index, 308.15 K	speed of sound, 298.15 K [m/s]	viscosity, 298.15 K [mPa·s]	viscosity, 303.15 K [mPa·s]	viscosity, 308.15 K [mPa·s]
[1]	943.9	939.5	935	–	–	–	1462	0.801	0.754	0.711
[2]	–	–	–	1.4288	1.4264	1.4238	–	–	–	–

C1COCCO1 [1,4-dioxane]
Settings	mass density, 298.15 K [kg/m3]	mass density, 303.15 K [kg/m3]	mass density, 308.15 K [kg/m3]	refractive index, 298.15 K	refractive index, 303.15 K	refractive index, 308.15 K	speed of sound, 298.15 K [m/s]	viscosity, 298.15 K [mPa·s]	viscosity, 303.15 K [mPa·s]	viscosity, 308.15 K [mPa·s]
[1]	1028.3	1023.1	1017.8	–	–	–	1345	1.415	1.171	1.068
[2]	–	–	–	1.4181	1.4176	1.4141	–	–	–	–

OCCCl [1-chloro-2-hydroxyethane] + COc1ccccc1
Settings	mass density, 298.15 K [kg/m3]	mass density, 303.15 K [kg/m3]	mass density, 308.15 K [kg/m3]	refractive index, 298.15 K	refractive index, 303.15 K	refractive index, 308.15 K	speed of sound, 298.15 K [m/s]	viscosity, 298.15 K [mPa·s]	viscosity, 303.15 K [mPa·s]	viscosity, 308.15 K [mPa·s]
[3], x2 = 0	1200.9	1192.5	1187.1	–	–	–	1358	3.104	2.669	2.347
[3], x2 = 0.103	1165.8	1158.6	1153.9	–	–	–	1365	2.6	2.334	2.068
[3], x2 = 0.209	1134.5	1129	1123.7	–	–	–	1372	2.13	1.943	1.755
[3], x2 = 0.313	1107.6	1102.5	1097.5	–	–	–	1378	1.778	1.631	1.485
[3], x2 = 0.395	1088.7	1083.9	1078.8	–	–	–	1382	1.583	1.452	1.32
[3], x2 = 0.49	1068.8	1064.3	1058.9	–	–	–	1388	1.418	1.289	1.16
[3], x2 = 0.59	1049.8	1044.8	1040.1	–	–	–	1392	1.269	1.158	1.046
[3], x2 = 0.69	1032.5	1027.5	1023	–	–	–	1397	1.155	1.064	0.972
[3], x2 = 0.797	1015.9	1010	1006.6	–	–	–	1402	1.087	1.004	0.921
[3], x2 = 0.898	1001.9	996.1	992.5	–	–	–	1406	1.007	0.936	0.865
[4], x2 = 0	–	–	–	1.4411	1.438	1.4326	–	–	–	–
[4], x2 = 0.103	–	–	–	1.4495	1.4793	1.4468	–	–	–	–
[4], x2 = 0.209	–	–	–	1.461	1.4586	1.4564	–	–	–	–
[4], x2 = 0.313	–	–	–	1.4712	1.4684	1.4652	–	–	–	–
[4], x2 = 0.395	–	–	–	1.4767	1.4745	1.4723	–	–	–	–
[4], x2 = 0.49	–	–	–	1.4836	1.4807	1.4778	–	–	–	–
[4], x2 = 0.59	–	–	–	1.4899	1.4879	1.4859	–	–	–	–
[4], x2 = 0.69	–	–	–	1.4978	1.4951	1.4923	–	–	–	–
[4], x2 = 0.797	–	–	–	1.5034	1.5011	1.4999	–	–	–	–
[4], x2 = 0.898	–	–	–	1.5094	1.5067	1.5041	–	–	–	–
